Assay results published in ChEMBL document CHEMBL1201862, “PubChem BioAssay data set” (2004).
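Briefly, cells in 96-well plates were exposed to five compound concentrations for 48 h, and endpoints were estimated by linear interpolation. GI50 = concentration required for 50% inhibition of growth.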 Activity calls are given as the source filed them. Cut-off read from the data, not from the text of the source: active = GI50 up to about 1.1 µM and inactive = higher.

Columns and labels:
Assay in all cases: growth of human tumour cells (NCI), 48 h
A549 = system: A549
ACHN = system: ACHN
COLO 205 = system: COLO 205
DLD-1 = system: DLD-1
EKVX = system: EKVX
HCC 2998 = system: HCC 2998
HCT-15 = system: HCT-15
HL-60 = system: HL-60
Hs-578T = system: Hs-578T
IGROV-1 = system: IGROV-1
NCI-H522 = system: NCI-H522
OVCAR-3 = system: OVCAR-3
OVCAR-4 = system: OVCAR-4
RPMI-8226 = system: RPMI-8226
SF-295 = system: SF-295
SK-MEL-28 = system: SK-MEL-28
SK-MEL-2 = system: SK-MEL-2
SK-MEL-5 = system: SK-MEL-5
U-251 = system: U-251

Row | Structure (SMILES) | GI50 (A549) | GI50 (ACHN) | GI50 (COLO 205) | GI50 (DLD-1) | GI50 (EKVX) | GI50 (HCC 2998) | GI50 (HCT-15) [µM] | GI50 (HL-60) | GI50 (Hs-578T) | GI50 (IGROV-1) | GI50 (NCI-H522) | GI50 (OVCAR-3) | GI50 (OVCAR-4) | GI50 (RPMI-8226) | GI50 (SF-295) | GI50 (SK-MEL-28) | GI50 (SK-MEL-2) | GI50 (SK-MEL-5) | GI50 (U-251)
1 | COc1ccc2c[n+](C)c3c4cc(OC)c(OC)cc4ccc3c2c1 | 0.53 µM (active) | 64.6 µM (inactive) | 0.776 µM (active) | 10.8 µM (inactive) | 13.1 µM (inactive) | 8.11 µM (inactive) | > 41.9 | 8.07 µM (inactive) | 2.6 µM (inactive) | 4.89 µM (inactive) | 2.03 µM (inactive) | 3.9 µM (inactive) | 8.09 µM (inactive) | 2.96 µM (inactive) | 5.13 µM (inactive) | 18.9 µM (inactive) | 10.9 µM (inactive) | 14.7 µM (inactive) | 1.49 µM (inactive)
2 | Cc1ccccc1C1CC(c2ccccc2)=NO1 (centres undefined) | > 100 µM (inactive) | > 100 µM (inactive) | > 100 µM (inactive) | > 100 µM (inactive) | > 100 µM (inactive) | > 100 µM (inactive) | > 100 | > 100 µM (inactive) |  | > 100 µM (inactive) | > 100 µM (inactive) | > 100 µM (inactive) | > 100 µM (inactive) | > 100 µM (inactive) | > 100 µM (inactive) | > 100 µM (inactive) | > 100 µM (inactive) | > 100 µM (inactive) | > 100 µM (inactive)
3 | c1ccc2c(c1)Cc1c(Cc3csc4ccccc34)ccc3cccc-2c13 | > 100 µM (inactive) | > 100 µM (inactive) | > 100 µM (inactive) | > 100 µM (inactive) | > 100 µM (inactive) | > 100 µM (inactive) | > 100 | > 100 µM (inactive) |  | > 100 µM (inactive) | 41.3 µM (inactive) | > 100 µM (inactive) | 54 µM (inactive) | > 100 µM (inactive) | > 100 µM (inactive) | > 100 µM (inactive) | > 100 µM (inactive) | > 100 µM (inactive) | > 100 µM (inactive)
4 | C/C(CC(=O)Nc1ccc([N+](=O)[O-])cc1)=N\NC(N)=O | > 100 µM (inactive) | > 100 µM (inactive) | > 55.6 µM (inactive) | > 77.8 µM (inactive) | > 100 µM (inactive) | > 100 µM (inactive) | 27 | > 100 µM (inactive) |  | > 100 µM (inactive) | > 81.7 µM (inactive) | > 100 µM (inactive) | > 100 µM (inactive) | > 46.1 µM (inactive) | > 100 µM (inactive) | > 100 µM (inactive) | > 100 µM (inactive) | > 68.7 µM (inactive) | > 100 µM (inactive)
5 | Cc1ccc2c(c1)SC(c1cc3c(cc1Br)OCO3)S2 (centres undefined) | > 31.6 µM (inactive) | > 31.6 µM (inactive) | > 31.6 µM (inactive) | > 31.6 µM (inactive) | > 31.6 µM (inactive) | 31 µM (inactive) | 25.4 | 22.6 µM (inactive) |  | > 31.6 µM (inactive) | 24.7 µM (inactive) | > 31.6 µM (inactive) | > 31.6 µM (inactive) | 18.5 µM (inactive) | > 31.6 µM (inactive) | > 31.6 µM (inactive) | > 31.6 µM (inactive) | > 31.6 µM (inactive) | > 31.6 µM (inactive)
6 | Cc1cccc(C)c1NC(=O)CCc1nnc2s/c(=C\c3ccc(Cl)cc3)c(=O)n12 | > 100 µM (inactive) | > 100 µM (inactive) | 92 µM (inactive) | 37.8 µM (inactive) | > 100 µM (inactive) | > 100 µM (inactive) | 19.1 | > 100 µM (inactive) |  | 72.1 µM (inactive) | > 100 µM (inactive) | > 100 µM (inactive) | > 100 µM (inactive) | 61 µM (inactive) | 70.6 µM (inactive) | > 100 µM (inactive) | 60.5 µM (inactive) | > 100 µM (inactive) | 83.9 µM (inactive)
